# According to patent EP4710949A1, “LYOPHILIZED PREPARATION, LYOPHILIZED SOLUTION, METHODS FOR PRODUCING SAME, AND LIQUID AGENT” (Goryo Chemical, Inc., priority 2023, dated 2024):
# Where “and” joins values, the source holds several entries; their conditions need not be identical. Identical values can stand only once.
# Key:
# [1] = Dissolution test of Compound A (Test Example 1); assay type: physicochemical; settings: 0.03% ps20, pH 7; 0.03 wt% PS20 solution (phosphate buffer)
# Protocol: (§1) ·Column: Meteoric Core C8, 5 µm, 4.6 mm×150 mm (YMC Co., Ltd.) ·Column temperature: 25°C ·Feeding amount: 1.0 mL/min. ·Wavelength: 254 nm ·Mobile phase A: water/TFA (1,000:1), Mobile phase B: acetonitrile/TFA (1,000:1) ·Feeding of mobile phase Table 1
# 1 Milligram of Compound A and 10 mL of a 6.55 mM phosphate buffer (pH: 7) containing 0 wt% to 0.03 wt% of polysorbate 20 (FUJIFILM Wako Pure Chemical Corporation, hereinafter referred to as "PS20") or an aqueous solution of NaH2PO4 (0.33 mg/mL) containing 0 wt% to 0.03 wt% of PS20 were loaded into a glass vial having a volume of 20 mL, and air inside the vial was purged with nitrogen. The vial was loaded into Aluminum Lamizip, and the vial was shaken overnight. The phosphate buffer was prepared by using NaH2PO4 and Na2HPO4. The mixture was filtered with a PVDF filter (Millex-GV, 0.22 µm, PVDF, 4 mm), and the solution after 10 drops of its initial flow was collected. Thus, solutions having formulations 1 to 8 were obtained. The concentrations of Compound A in the resultant solutions were calculated by the HPLC measurement of the solutions.
# [2] = Reconstitution of lyophilized preparation of Compound A in physiological saline (Test Example 8); assay type: physicochemical
# Protocol: as §1
# Physiological saline (physiological salt solution "OTSUKA NORMAL SALINE") was added to a lyophilized preparation produced according to the same formulation as the formulation 32 except the concentration of Compound A in the lyophilization solution, and the preparation was dissolved in the saline so that a liquid amount was 5 mL. Thus, a reconstituted solution (liquid preparation) of Compound A was obtained. The concentration of Compound A in the reconstituted solution was calculated by HPLC measurement, and the content of Compound A was calculated. […]
compound,measurement,setting,value
COCC(=O)N[C@@H](CC(C)C)C(=O)N[C@@H](CCSC)C(=O)Nc1ccc2c(c1)Oc1cc(N)ccc1C21OCc2ccccc21 (some centres unmarked) [Compound A],solubility,[1],12.4 µg/mL
same,measured value of the concentration of Compound A,[2]; lyophilization solution used in the production of the lyophilized preparation (same formulation as formulation 32 except Compound A concentration),149.2 µg/mL
same,appearance of the reconstituted solution,"[2]; lyophilized preparation dissolved in physiological saline, 5 mL",clear and free of visible particles
same,Final concentration of Compound A,"[2]; reconstituted solution, 5 mL physiological saline, lyophilized preparation as formulation 32 except Compound A concentration",29.9 µg/mL and 47.2 µM
same,Content of Compound A (%),"[2]; reconstituted solution, 5 mL physiological saline, ratio to content in lyophilization solution",100.1%
